Source: patent US12029738B2, “Antiproliferative compounds and methods of use thereof” (Celgene Corporation, priority 2017, dated 2024)
Entries after “also recorded” stand apart in the source; their conditions may differ.

Experiments:
THLE-2 = test: Anti-proliferative counter-screen (CellTiter-Glo, 72 h); format: cell-based; conditions: Homo sapiens
ANBL-6 = test: Flow cytometry proliferation/apoptosis assay (120 h); format: cell-based, human; conditions: for IC50: Homo sapiens, read-out: Antiproliferative Activity (Flow Cytometry) IC50; for induced apoptosis AUC (area under the dose response curve): scale 0-10000
Protocol: (§1) Methods. […] Twenty MM cell lines (Table 7 and 8) (including the plasma cell leukemia (PCL) cell lines L363, JJN-3, ARH-77, and SKMM-2) were treated in duplicate with escalating concentrations of Compound 2 or pomalidomide, ranging from 0.015 to 100 nM. Using 5 mM stocks, compounds were pre-spotted into the appropriate wells of 96-well plates using a Hewlett-Packard D300 Digital Dispenser. Cells were added to 96-well plates using a Multidrop Combi Reagent Dispenser. After 5 days of treatment, flow cytometric analysis was used to determine the number of cells that were alive, dead, or apoptotic. After 5 days of treatment, cells were incubated with annexin V to stain exposed phosphatidylserine, an apoptotic cell-surface marker, and the vital dye 7-AAD, which is excluded from cells with intact cell membranes, and analyzed by flow cytometry (Attune®, Thermo Fisher). Analysis was then performed to determine the number of live cells (annexin V and 7-AAD double negative staining cells) and the percentage of apoptotic cells (annexin V positive cells) for each condition, relative to the DMSO control treated, was calculated. All described values were normalized to DMSO-only treated cells. All proliferation and apoptosis induction curves were processed and graphed as percent of control using XLFit (IDBS, Alameda, CA) and GraphPad Prism 7.03 (GraphPad Software, La Jolla, CA). The live cell count for every concentration was normalized to the DMSO control (considered as 100%) in Microsoft Excel to generate the proliferation curves. […] Similarly, for apoptosis analysis, the percentage of drug-induced apoptosis was calculated for all doses by combining both “early” (annexin V positive and 7-AAD negative) and “late” apoptosis (annexin V and 7-AAD positive) values and subtracting background values (cell treated with vehicle control DMSO). The AUC values for apoptosis curves were calculated by performing area under curve analysis on GraphPad Prism 7.03. The area under the dose-response curve (AUC) was calculated since it integrates potency and efficacy of the drugs to represent apoptosis into a single parameter. The IC50 values for Compound 2 and pomalidomide in the flow cytometry assays are presented Table 9.
(§2) The apoptosis induction effect of Compound 2 was assessed using flow cytometry after 120 h of treatment and compared with pomalidomide treatment. […] Each data point represents 2 independent experiments with at least two samples in each experiment. (Table 10).

DF15 = test: as above; format: cell-based, human; conditions: for IC50: Homo sapiens, read-out: Antiproliferative Activity (Flow Cytometry) IC50; for induced apoptosis AUC (area under the dose response curve): scale 0-10000
Protocol: as §1, §2

KMS-12-PE = test: as above; format: cell-based, human; conditions: for IC50: Homo sapiens, read-out: Antiproliferative Activity (Flow Cytometry) IC50; for induced apoptosis AUC (area under the dose response curve): scale 0-10000
Protocol: as §1, §2

LP-1 = test: as above; format: cell-based, human; conditions: for IC50: Homo sapiens, read-out: Antiproliferative Activity (Flow Cytometry) IC50; for induced apoptosis AUC (area under the dose response curve): scale 0-10000
Protocol: as §1, §2

MM1-S = test: as above; format: cell-based, human; conditions: for IC50: Homo sapiens, MM1-S, read-out: Antiproliferative Activity (Flow Cytometry) IC50; for induced apoptosis AUC (area under the dose response curve): MM1.S, 10000 = complete induction at all doses, 0 = none
Protocol: as §1, §2

NCI-H929 = test: as above; format: cell-based, human; conditions: for IC50: Homo sapiens, read-out: Antiproliferative Activity (Flow Cytometry) IC50; for induced apoptosis AUC (area under the dose response curve): scale 0-10000
Protocol: as §1, §2

OPM2 = test: as above; format: cell-based, human; conditions: for IC50: Homo sapiens, OPM-2, read-out: Antiproliferative Activity (Flow Cytometry) IC50; for induced apoptosis AUC (area under the dose response curve): scale 0-10000
Protocol: as §1, §2

MM cell lines = test: Daratumumab-mediated ADCP assay; format: cell-based, human; conditions: for daratumumab-mediated ADCP: ARH-77 cell line
Protocol: ADCP assay: The effect of Compound 2 or pomalidomide on daratumumab-mediated ADCP was determined in a panel of MM cell lines. Monocytes were plated in a 96 well plate at 40,000 cells per well in 100 μL volume of complete AIM-V media containing 50 ng/mL of M-CSF. The cells were allowed to settle onto the plate for 15 minutes at room temperature before placing into 37° C., 5% C02 incubator for 9 days to allow for differentiation into macrophages. The culture media was replenished with fresh complete media every 3-4 days. On the morning of the ADCP assay, the macrophages were serum starved for 2-4 hours at 37° C., 5% C02 before co-culturing with the MM cells. The MM cells were pretreated with sub-lethal concentrations of Compound 2 or pomalidomide for 72 h. On the day of the assay, the MM cells were washed with PBS and labeled with CSFE for 15 minutes. The reaction was stopped with an equal volume of 20% FBS. The cells were washed twice with PBS and resuspended in AIM-V media at 1.6×10^6 cells/mL. Then 50 μL of MM cells was mixed with 50 μL of 2 μg/mL daratumumab for 10 minutes at room temperature before adding to the serum starved macrophages. Each condition was assayed in triplicate. The final volume of the assay was 200 μL containing 10% human serum with an effector to target ratio of […]. The plate was spun at 500 rpm for 1 minute followed by incubation at 37° C., 5% CO2 for 3 h. At the end of the incubation, the plate was washed with 100 μL of PBS and the remaining cells were stained with anti-CD14 and anti-CD138 to identify the macrophages and MM cells, respectively. The plate was washed and the wells were filled with 100 μL of PBS. The macrophages were detached from the bottom of the wells with the addition of 50 μL of 0.25% trypsin. The samples were neutralized with the addition of 50 μL of complete AIM-V media. The samples were analyzed on flow cytometer. The percent phagocytosis was determined by the CSFE/CD14 double positive cells divided by the total number of CD14+ cells times 100.

CYP1A2 = molecular target: T1, CYP1A2 (Homo sapiens, UniProt P05177); test: CYP inhibition in pooled human liver microsomes; format: in vitro ADME; conditions: up to 30 μM
T1 construct: from tissue; host or cells: pooled human liver microsomes
Protocol: (§3) Methods. […] In addition, the compounds were evaluated for their potential to act as a time-dependent inhibitors at the same concentrations mentioned above. […] In addition to appropriate vehicle controls, known direct inhibitors and time-dependent inhibitors of CYP isoforms were included as positive controls. Following the incubation, concentrations of probe substrate metabolites were quantified using established LC/MS/MS methods. The extent of inhibition was expressed as the percentage of control activity.

CYP2C8 = molecular target: T2, CYP2C8 (Homo sapiens, UniProt P10632); test: CYP inhibition in pooled human liver microsomes; format: in vitro ADME; conditions: up to 30 μM
T2 construct: from tissue; host or cells: pooled human liver microsomes
Protocol: as §3

CYP2D6 = molecular target: T3, CYP2D6 (Homo sapiens, UniProt P10635); test: CYP inhibition in pooled human liver microsomes; format: in vitro ADME; conditions: up to 30 μM
T3 construct: from tissue; host or cells: pooled human liver microsomes
Protocol: as §3

CYP2E1 = molecular target: T4, CYP2E1 (Homo sapiens, UniProt P05181); test: CYP inhibition in pooled human liver microsomes; format: in vitro ADME; conditions: up to 30 μM
T4 construct: from tissue; host or cells: pooled human liver microsomes
Protocol: as §3

[1] = 30 minute preincubation with or without NADPH

T1 sequence (P05177 whole entry): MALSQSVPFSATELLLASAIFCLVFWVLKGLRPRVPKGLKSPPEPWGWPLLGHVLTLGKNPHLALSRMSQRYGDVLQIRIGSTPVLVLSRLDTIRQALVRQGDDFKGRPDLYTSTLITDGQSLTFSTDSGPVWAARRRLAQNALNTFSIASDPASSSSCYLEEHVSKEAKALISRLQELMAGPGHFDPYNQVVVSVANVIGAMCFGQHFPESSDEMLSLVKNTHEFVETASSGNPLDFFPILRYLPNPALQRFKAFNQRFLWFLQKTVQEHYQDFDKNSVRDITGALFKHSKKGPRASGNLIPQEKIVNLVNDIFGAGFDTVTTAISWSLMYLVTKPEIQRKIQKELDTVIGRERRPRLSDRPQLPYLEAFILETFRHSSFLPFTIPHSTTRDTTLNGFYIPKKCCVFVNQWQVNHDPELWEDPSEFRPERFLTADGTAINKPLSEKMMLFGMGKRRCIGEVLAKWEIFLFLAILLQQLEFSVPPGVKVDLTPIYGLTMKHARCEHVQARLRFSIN
T4 sequence (P05181 whole entry): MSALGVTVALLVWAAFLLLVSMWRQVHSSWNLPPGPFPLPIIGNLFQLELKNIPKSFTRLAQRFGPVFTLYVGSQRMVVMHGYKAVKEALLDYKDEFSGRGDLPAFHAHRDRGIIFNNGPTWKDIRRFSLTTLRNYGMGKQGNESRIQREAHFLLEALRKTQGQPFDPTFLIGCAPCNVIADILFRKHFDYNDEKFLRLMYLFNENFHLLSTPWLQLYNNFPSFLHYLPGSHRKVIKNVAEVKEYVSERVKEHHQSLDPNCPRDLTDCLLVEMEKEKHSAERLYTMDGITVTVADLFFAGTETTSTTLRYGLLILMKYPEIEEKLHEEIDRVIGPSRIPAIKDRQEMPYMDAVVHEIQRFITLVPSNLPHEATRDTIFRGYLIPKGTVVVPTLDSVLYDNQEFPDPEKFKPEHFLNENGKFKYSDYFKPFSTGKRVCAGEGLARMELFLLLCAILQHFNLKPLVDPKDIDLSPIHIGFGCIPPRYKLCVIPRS
T2 sequence (P10632 whole entry): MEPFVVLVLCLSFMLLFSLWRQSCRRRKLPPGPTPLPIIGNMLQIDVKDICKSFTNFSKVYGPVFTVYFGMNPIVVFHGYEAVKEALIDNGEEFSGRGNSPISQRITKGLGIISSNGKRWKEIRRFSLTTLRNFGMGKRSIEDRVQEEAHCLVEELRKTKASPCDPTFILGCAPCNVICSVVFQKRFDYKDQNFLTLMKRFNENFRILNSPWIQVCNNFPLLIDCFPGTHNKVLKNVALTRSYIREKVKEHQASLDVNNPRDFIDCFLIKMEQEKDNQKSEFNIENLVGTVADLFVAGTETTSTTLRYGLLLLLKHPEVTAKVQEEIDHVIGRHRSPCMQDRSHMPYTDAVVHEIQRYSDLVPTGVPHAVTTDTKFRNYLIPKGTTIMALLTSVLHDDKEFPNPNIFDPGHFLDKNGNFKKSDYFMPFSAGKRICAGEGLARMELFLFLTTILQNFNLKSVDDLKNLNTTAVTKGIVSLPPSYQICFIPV
T3 sequence (P10635 whole entry): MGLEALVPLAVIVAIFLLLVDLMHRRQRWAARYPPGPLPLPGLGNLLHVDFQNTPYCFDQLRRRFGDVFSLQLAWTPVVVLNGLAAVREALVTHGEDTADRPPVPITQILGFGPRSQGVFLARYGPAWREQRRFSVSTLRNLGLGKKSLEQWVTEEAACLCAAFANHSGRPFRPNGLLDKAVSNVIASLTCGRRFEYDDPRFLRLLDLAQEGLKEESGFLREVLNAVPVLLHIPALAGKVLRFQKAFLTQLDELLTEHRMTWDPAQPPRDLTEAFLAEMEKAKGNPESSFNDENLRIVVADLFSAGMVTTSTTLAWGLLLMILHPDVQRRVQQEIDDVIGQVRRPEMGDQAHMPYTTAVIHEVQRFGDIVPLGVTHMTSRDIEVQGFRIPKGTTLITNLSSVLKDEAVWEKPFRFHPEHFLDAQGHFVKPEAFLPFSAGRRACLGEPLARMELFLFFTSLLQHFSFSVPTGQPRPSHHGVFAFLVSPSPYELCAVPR

SMILES	IC50 (ANBL-6) [nM]	induced apoptosis AUC (area under the dose response curve) (ANBL-6)	IC50 (DF15) [nM]	induced apoptosis AUC (area under the dose response curve) (DF15)	IC50 (KMS-12-PE) [nM]	induced apoptosis AUC (area under the dose response curve) (KMS-12-PE)	IC50 (LP-1) [nM]	induced apoptosis AUC (area under the dose response curve) (LP-1)	IC50 (MM1-S) [nM]	induced apoptosis AUC (area under the dose response curve) (MM1-S)	IC50 (NCI-H929) [nM]	induced apoptosis AUC (area under the dose response curve) (NCI-H929)	IC50 (OPM2) [nM]	induced apoptosis AUC (area under the dose response curve) (OPM2)	daratumumab-mediated ADCP (MM cell lines)	other results
N#Cc1ccc(N2CCN(Cc3ccc(COc4cccc5c4CN([C@H]4CCC(=O)NC4=O)C5=O)cc3)CC2)c(F)c1 [Compound 2, (S)-4-(4-(4-(((2-(2,6-dioxopiperidin-3-yl)-1-oxoisoindolin-4-yl)oxy)methyl)benzyl)piperazin-1-yl)-3-fluorobenzonitrile]	0.06	4751	0.05	6002	0.09	2017	0.14	630.7	0.04	5701	0.05	6089	0.05	5620	no enhanced ADCP	IC50 (THLE-2): > 10000 nM; daratumumab-mediated ADCP of pretreated MM cells (MM cell lines; 72 h pretreatment, macrophages E:T 2:1): more sensitive to daratumumab-mediated ADCP compared to untreated and pomalidomide treated cells
O=C1CC[C@H](N2Cc3c(OCc4ccc(CN5CCN(c6ccc(F)cc6F)CC5)cc4)cccc3C2=O)C(=O)N1 [Compound B]	–	–	–	–	–	–	–	–	–	–	–	–	–	–	–	time-dependent inhibition of CYP1A2 (CYP1A2; [1]): little to no time-dependent inhibition; also recorded: not a time-dependent inhibitor; direct inhibition of CYP1A2 (CYP1A2; human liver microsomes): up to 30%; time-dependent inhibition of CYP2C8 (CYP2C8; [1]): little to no time-dependent inhibition; also recorded: not a time-dependent inhibitor; direct inhibition of CYP2C8 (CYP2C8; human liver microsomes): up to 30%; time-dependent inhibition of CYP2D6 (CYP2D6; [1]): little to no time-dependent inhibition; also recorded: not a time-dependent inhibitor; direct inhibition of CYP2D6 (CYP2D6; human liver microsomes): up to 30%; time-dependent inhibition of CYP2E1 (CYP2E1; [1]): little to no time-dependent inhibition; also recorded: not a time-dependent inhibitor; direct inhibition of CYP2E1 (CYP2E1; human liver microsomes): up to 30%
Nc1cccc2c1C(=O)N(C1CCC(=O)NC1=O)C2=O (stereo not shown) [Pomalidomide, pomalidomide]	60.6	2580	41	3707	83.8	1069	176	174	33.7	3525	63.1	2115	69.7	3298	no enhanced ADCP	–
